Patent US11857601B2, “Pharmaceutical composition for cancer treatment comprising fusion protein including IL-2 protein and CD80 protein and anticancer drug” (GI INNOVATION, INC., priority 2020, dated 2024)
“Also recorded” adds a separate entry of the source. Marks after values point to notes of the source that are not given here.

Columns and labels:
IL-2Rα = target: T1, IL-2Rα (Homo sapiens, UniProt P01589); assay: Binding to IL-2Rα (Octet, AR2G biosensor); settings: as compared with GI101w and Proleukin
T1 construct: purchased Acro ILA-H52H9
T1 sequence (P01589 22-272): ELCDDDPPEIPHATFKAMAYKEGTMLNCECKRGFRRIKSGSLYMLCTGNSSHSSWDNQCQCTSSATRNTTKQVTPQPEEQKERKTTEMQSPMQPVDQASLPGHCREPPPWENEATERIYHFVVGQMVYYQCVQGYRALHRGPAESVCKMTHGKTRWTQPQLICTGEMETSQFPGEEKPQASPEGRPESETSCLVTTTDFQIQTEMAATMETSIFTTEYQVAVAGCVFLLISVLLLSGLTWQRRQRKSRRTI
Procedure: (§1) The binding ability for IL-2Rα was measured using the AR2G biosensor, and the binding ability for IL-2Rβ was measured using the Ni-NTA biosensors (Nickel charged Tris-NTA, Ni-NTA Biosensors, ForteBio, 18-5101).
A ligand (IL-2Rα-His Tag, Acro, Cat: ILA-H52H9) to be attached to the AR2G biosensor was diluted with 10 mM acetate buffer (pH 5, AR2G reagent Kit, ForteBio, Cat: 18-5095) to a concentration of 5 μg/ml. The AR2G biosensor was activated with a buffer prepared by mixing 400 mM EDC and 100 mM sulfo-NHS, and then the diluted ligand was loaded on the AR2G biosensor for 300 seconds and fixed.
(§2) Thereafter, GI101, GI101w, or Proleukin (Novartis, hIL-2), at various concentrations, to be attached to the ligand was loaded thereon for 300 seconds. Then, binding thereof was measured and dissociation thereof was also measured for 300 seconds. Binding kinetics analysis was performed using Octet Data Analysis HT software ver. 10 provided by Pall Corporation. The results are illustrated in FIGS. 22 to 24.

IL-2Rβ = target: T2, IL-2Rβ (Homo sapiens, UniProt P14784); assay: Binding to IL-2Rβ (Octet, Ni-NTA biosensor); settings: as compared with GI101w and Proleukin
T2 construct: purchased Acro CD2-H5221
T2 sequence (P14784 27-551): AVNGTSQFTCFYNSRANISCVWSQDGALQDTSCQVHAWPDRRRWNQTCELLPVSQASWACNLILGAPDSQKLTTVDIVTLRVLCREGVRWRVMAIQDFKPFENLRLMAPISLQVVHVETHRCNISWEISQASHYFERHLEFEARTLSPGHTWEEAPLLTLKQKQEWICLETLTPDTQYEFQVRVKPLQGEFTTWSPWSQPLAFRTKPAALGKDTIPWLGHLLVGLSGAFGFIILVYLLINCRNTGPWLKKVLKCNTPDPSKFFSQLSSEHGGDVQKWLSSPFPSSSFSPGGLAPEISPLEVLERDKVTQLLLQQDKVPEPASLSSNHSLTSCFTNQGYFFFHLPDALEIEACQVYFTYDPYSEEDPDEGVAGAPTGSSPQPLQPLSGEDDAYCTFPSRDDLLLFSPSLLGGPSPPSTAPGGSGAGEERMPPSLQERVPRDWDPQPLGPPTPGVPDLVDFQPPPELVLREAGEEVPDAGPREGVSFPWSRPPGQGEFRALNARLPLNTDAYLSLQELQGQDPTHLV
Procedure: as §1
Meanwhile, a ligand (IL-2Rβ-His Tag, Acro, Cat: CD2-H5221) to be attached to the Ni-NTA biosensor was diluted with 1×Ni-NTA kinetic buffer to a concentration of 5 μg/ml. The diluted ligand was loaded on the Ni-NTA biosensor for 600 seconds and fixed.
as §2

CT-26 cancer cell line = assay: mGI101 in mice transplanted with CT-26 (Exp. Ex. 19); format: in vivo, BALB/c mice
CT26 cells = assay: mGI-101 and Axitinib in CT26 allotransplanted tumor model; settings: mGI-101 3 mg/kg IP, Axitinib 30 mg/kg PO;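 note: subcutaneous CT26 syngeneic tumors in male BALB/c mice, dosing started once tumors were near 50 mm^3, drugs given orally or intraperitoneally for up to 3 weeks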
Procedure: Mouse-derived colorectal cancer cells, CT26 (Mus musculus, Colon adenocarcinoma), and mouse-derived lung cancer cells, LL/2 (Mus musculus, Lung adenocarcinoma), were purchased from ATCC (USA) and used for the test. The cells to be used for the test were thawed, mixed with RPMI1640 (A1049101, Thermofisher scientific) medium containing 10% FBS (fetal bovine serum, Gibco, 10082-147), and then placed in a cell culture flask, and cultured in a 37° C., 5% CO2 incubator. The cells were washed with PBS, and then the cells were isolated using Trypsin-EDTA (15090, Gibco), and centrifugation (125×g, 5 minutes) was performed to discard the supernatant, and then the cells were suspended in a new medium to obtain the cell suspension. The viability of the cells was identified, and then a cell line was prepared by diluting in a medium to a concentration of 5.0×10^6 cells/mL.
6-week-old male BALB/cAnHsd mice or C57BL/6NHsd mice were purchased and used for the test. After the end of the acclimation period of 7 days, the cells were transplanted into healthy animals. The cell suspension (5×10^6 cells/mL) was dispensed, and filled into a disposable syringe, and transplantation of the suspension was performed by subcutaneous administration at 0.1 mL/head in the right dorsal region of the animals. General symptoms were observed once a day during the engraftment and growth period after cell line transplantation.
After the inoculation of the cell line was performed, when the tumor size at the site to which the cell line was transplanted reached about 50 mm^3, the tumor size of each group was distributed as uniformly as possible according to the ranked tumor size.
The test substance was administered orally or intraperitoneally, and administered for 3 weeks depending on the composition of the test group. In the case of oral administration, the animals were fixed with the cervical spine skin fixation method, and administered directly into the stomach using a sonde for oral administration. In the case of intraperitoneal administration, the animals were fixed with the cervical spine skin fixation method, and administered intraperitoneally using a syringe equipped with a 26 gauge needle. The administration rate was not to exceed 200 μl/min.
Syngeneic model was prepared by subcutaneously transplanting the CT26 cell line into Balb/c mice, and then the test substance was administered to evaluate the anticancer effect.

BT-474 cells = assay: mGI-101 and Herceptin in BT-474 xenotransplanted tumor model; format: in vivo, human
Text: BT-474 cells were purchased from ATCC (USA) and cultured in RPMI1640 medium (Welgene) containing 10% FBS (Gibco) and 1% antibiotic/antifungal agent (Gibco).
In order to establish a xenotransplanted tumor model for BT-474 cells, it was subcutaneously injected into the left flank of BALB/c nu/nu female mice (7-week-old) by pulling the leather skin of the mice to make a space using a pellet transplant trochar (MP-182, Innovative Research of America, USA) so that it was located under the skin of the left flank.
A certain period of time after cell inoculation of the tumor grafts of the mice, the tumor volume was measured for animals with no abnormalities in the health condition of the animals, and the subjects were selected so that the average of each group reached less than 60-120 mm^3, and the selected animals were assigned as evenly as possible based on tumor volume and body weight, each group including 10 animals.
Clinical symptoms such as a disease and a behavioral change were observed once a day during the test period, and deceased animals were identified, and the mice were sacrificed when the tumor size reached a size of 4,000 mm^3.
The tumor volume before administration of each subject was set as the value measured at the time of grouping.
All statistical calculations were performed using Prism 8.0 (Graph Pad Software Inc, USA). The comparison of tumor volume measurements was made through two-way analysis of variance followed by Tukey's multiple comparison test. A p value of less than 0.05 was considered significant.

[1] = BT-474, end of the test, 10 animals per group

GI101: fusion protein: human CD80 fragment, Ig hinge, Fc domain, linker, IL-2 variant (2M) (R38A, F42A); SEQ ID NO: 9
binding ability for the IL-2 receptor IL-2Rα (IL-2Rα): low binding ability | binding ability for IL-2Rβ (IL-2Rβ): high binding ability

mGI101: fusion protein: mouse CD80, Ig hinge, Fc domain, linker, IL-2 variant (2M) (R38A, F42A); SEQ ID NO: 15
tumor volume / tumor size (CT-26 cancer cell line; 6 mg/kg i.v., vs negative control): significant inhibition of tumor size | tumor growth inhibition rate / anticancer efficacy (CT-26 cancer cell line; compared with combination of mCD80 4.9 mg/kg and Fc-IL-2v (GI101C2) 2.8 mg/kg): excellent tumor growth inhibition rate; also recorded: excellent anticancer efficacy | tumor inhibitory efficacy (CT-26 cancer cell line; compared with respective mCD80 and IL-2v single formulations): had tumor inhibitory efficacy | Tumor size (CT26 cells; Day 0, mean ± SD): 63.53 ± 11.56 mm^3 | Tumor growth inhibition (CT26 cells; Day 5, mean ± SD): 58.32 ± 24.95 % | Tumor size (CT26 cells; Day 5, mean ± SD): 186.53 ± 76.61 mm^3 | Tumor growth inhibition (CT26 cells; Day 7, mean ± SD): 62.12 ± 38.89 % | Tumor size (CT26 cells; Day 7, mean ± SD): 249.93 ± 149.08 mm^3 | Tumor growth inhibition (CT26 cells; Day 9, mean ± SD): 62.87 ± 34.95 % | Tumor size (CT26 cells; Day 9, mean ± SD): 290.71 ± 165.17 mm^3 | Tumor growth inhibition (CT26 cells; Day 12, mean ± SD): 66.48 ± 29.50 % | Tumor size (CT26 cells; Day 12, mean ± SD): 352.46 ± 195.64 mm^3 | Tumor growth inhibition (CT26 cells; Day 14, mean ± SD): 65.87 ± 29.12 % | Tumor size (CT26 cells; Day 14, mean ± SD): 520.04 ± 307.47** mm^3 | Tumor growth inhibition (CT26 cells; Day 16, mean ± SD): 52.36 ± 41.33 % | Tumor size (CT26 cells; Day 16, mean ± SD): 962.28 ± 634.90** mm^3 | Tumor growth inhibition (CT26 cells; Day 19, mean ± SD): 41.48 ± 52.17 % | Tumor size (CT26 cells; Day 19, mean ± SD): 1395.48 ± 982.61** mm^3 | Tumor growth inhibition (CT26 cells; Day 21, mean ± SD): 44.57 ± 46.55 % | Tumor size (CT26 cells; Day 21, mean ± SD): 1987.45 ± 1320.62**** mm^3 | number of mice with tumor growth inhibition rate of 30% or more (BT-474 cells; [1]): 5 mice | number of mice with tumor growth inhibition rate of 50% or more (BT-474 cells; [1]): 1 mice | number of mice with tumor growth inhibition rate of 80% or more (BT-474 cells; [1]): no mouse | tumor size compared with the vehicle control (BT-474 cells; mGI-101 3 mg/kg i.v. QW: day 28, Herceptin 1 mg/kg i.p. QW: day 14, 18, 21, combination: day 14 to day 28): statistically significant reduction in tumor size
